{
  "source": "patent US20120149661A1",
  "about": "“TETRA-SUBSTITUTED HETEROARYL COMPOUNDS AND THEIR USE AS MDM2 AND/OR MDM4 MODULATORS” (NOVARTIS AG, priority 2009, published 2012)",
  "data": [
    {"units": {"melting point": "°C"}, "values": [
      {"smiles": "O=Cc1cc(-c2nc(C(=O)O)c(-c3ccc(F)c(Cl)c3)n2-c2cccc(Cl)c2F)cs1", "note": "[Example 293, 5-(3-Chloro-4-fluoro-phenyl)-1-(3-chloro-2-fluoro-phenyl)-2-(5-formyl-thiophen-3-yl)-1H-imidazole-4-carboxylic acid]", "melting point": "157 to 160"},
      {"smiles": "Cc1ccc(-c2nc(C#N)c(-c3cccc(Cl)c3)n2-c2cc(Cl)ccc2C)cc1C", "note": "[Example 3, 1-(5-chloro-2-methyl-phenyl)-5-(3-chloro-phenyl)-2-(3,4-dimethyl-phenyl)-1H-imidazole-4-nitrile]", "melting point": 218},
      {"smiles": "CCNC(=O)c1nc(-c2ccc(C)c(C)c2)n(-c2cc(Cl)ccc2C)c1-c1cccc(Cl)c1", "note": "[Example 1, 1-(5-Chloro-2-methyl-phenyl)-5-(3-chloro-phenyl)-2-(3,4-dimethyl-phenyl)-1H-imidazole-4-carboxylic acid ethylamide]", "melting point": "141 to 143"}
    ]}
  ]
}
